Results reported in US8357833B2, “Corn plants and seed enhanced for asparagine and protein” (priority 2007, dated 2013).

Tests used:
[1] = molecular target: T1, Zea mays asparagine synthetase Zm AsnS1 (SEQ ID NO: 2, encoded by SEQ ID NO: 1) (Zea mays, UniProt B4FFJ0); test: Kinetics of recombinant his-tagged, refolded maize asparagine synthetase AsnS1 (substrate titration, asparagine by HPLC); format: biochemical; conditions: 100 mM Hepes, pH 8.0, 10 mM MgCl2, read-out: Km(NH4^+)
T1 sequence (B4FFJ0 with tags, fused parts or gaps): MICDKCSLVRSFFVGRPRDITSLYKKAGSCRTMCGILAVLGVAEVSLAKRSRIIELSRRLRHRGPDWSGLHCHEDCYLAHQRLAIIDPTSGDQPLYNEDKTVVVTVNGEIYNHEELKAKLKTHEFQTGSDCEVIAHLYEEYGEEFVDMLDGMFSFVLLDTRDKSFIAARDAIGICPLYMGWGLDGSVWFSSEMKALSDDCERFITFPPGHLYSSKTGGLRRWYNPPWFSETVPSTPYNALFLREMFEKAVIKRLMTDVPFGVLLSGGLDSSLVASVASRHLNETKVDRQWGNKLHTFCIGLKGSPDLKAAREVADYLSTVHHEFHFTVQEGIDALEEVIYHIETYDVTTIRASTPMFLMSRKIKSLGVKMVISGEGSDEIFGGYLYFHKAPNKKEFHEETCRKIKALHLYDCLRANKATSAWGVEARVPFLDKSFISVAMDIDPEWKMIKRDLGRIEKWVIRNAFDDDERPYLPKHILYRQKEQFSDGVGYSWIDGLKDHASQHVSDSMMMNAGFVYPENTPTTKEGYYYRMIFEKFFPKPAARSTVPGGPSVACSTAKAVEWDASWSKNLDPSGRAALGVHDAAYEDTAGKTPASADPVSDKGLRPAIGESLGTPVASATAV
Description: (§1) The effect of expression of asparagine synthetase genes on asparagine synthetase activity was measured in transgenic events of pMON79706 and pMON92870. Frozen, ground leaf tissue was aliquoted (200-400 mg) into wells from a precooled 96 deep-well plate. Protein was extracted in Buffer A (100 mM Hepes-OH, pH 8.0, 0.1 mM EDTA, 10 mM MgCl2, 2 mM aspartate, 0.5 mM DTT, 67 mM mercaptoethanol, 20% (v/v) glycerol, 0.1 mM ATP, 1% (v/v) P9599 (Sigma Company), 25 mM KCl). A small amount of sand was added to each well. Buffer A was then added to the leaf tissue in the wells at a ratio of 4:1 (buffer:tissue). The plates were then agitated in a paint shaker for 2 min. to mix the sample and then centrifuged at 5000×g for 10 minutes. The supernatant (100-200 μL) was desalted in a 96-well macro spin plate (SNS S025L, The Nest Group Inc., Southboro, Mass.) equilibrated in buffer A. The supernatant was then either assayed immediately or frozen in liquid nitrogen and maintained at −80° C. until used. […] The mixture was then filtered to remove precipitate and asparagine was measured by HPLC. […]

[2] = molecular target: T2, Zea mays asparagine synthetase Zm AsnS3 (SEQ ID NO: 6, encoded by SEQ ID NO: 5) (Zea mays, UniProt B5U8J8); test: Kinetics of recombinant his-tagged, refolded maize asparagine synthetase AsnS3 (substrate titration, asparagine by HPLC); format: biochemical; conditions: 100 mM Hepes, pH 8.0, 10 mM MgCl2, read-out: Km(NH4^+)
T2 construct: 588 aa
T2 sequence (B5U8J8 1-588): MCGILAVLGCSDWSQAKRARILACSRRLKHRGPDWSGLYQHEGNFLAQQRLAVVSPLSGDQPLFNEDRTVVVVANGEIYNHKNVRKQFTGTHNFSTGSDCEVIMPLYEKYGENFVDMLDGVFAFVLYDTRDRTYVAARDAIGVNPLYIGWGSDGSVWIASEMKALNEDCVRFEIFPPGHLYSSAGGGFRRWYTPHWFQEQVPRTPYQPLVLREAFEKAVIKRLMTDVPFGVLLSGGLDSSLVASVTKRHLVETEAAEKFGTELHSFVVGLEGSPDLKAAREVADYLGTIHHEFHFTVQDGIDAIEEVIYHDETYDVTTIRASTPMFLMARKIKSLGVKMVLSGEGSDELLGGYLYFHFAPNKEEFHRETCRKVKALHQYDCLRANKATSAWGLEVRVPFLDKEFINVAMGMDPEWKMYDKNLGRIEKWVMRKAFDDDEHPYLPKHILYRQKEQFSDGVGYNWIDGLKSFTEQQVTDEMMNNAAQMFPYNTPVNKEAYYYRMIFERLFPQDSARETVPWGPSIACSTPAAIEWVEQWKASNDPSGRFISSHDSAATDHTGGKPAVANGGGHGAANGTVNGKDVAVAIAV
Description: as §1

With N [NH4^+] the Km [1] was 9.9 mM and the Km [2] was 8.4 mM.
